Reference: patent US20060069095A1, “Azole derivatives” (priority 2004, published 2006)

Tested on: HEK293 cells
Assay: CellTiter-Glo Luminescent Cell Viability Assay in HEK293 cells
Format: cell-based
Details: Homo sapiens, 168 h, 7 days incubation, 3 μM to 0.00015 μM
Source text: CellTiter-Glo™ Assay in HEK293 Cells
The CellTiter-Glo™ Luminescent Cell Viability Assay (Promega) is a homogeneous method of determining the number of viable cells in culture based on quantitation of the ATP present, which signals the presence of metabolically active cells.
HEK293 cells (human embryonic kidney cell line transformed by Adenovirus 5 fragments, ATCC-No. CRL 1573) were cultivated in Dulbecco's Modified Eagle Medium (DMEM) with Glutamax™ (Invitrogen, 31966-021), 5% Fetal Calf Serum (FCS, Sigma Cat-No. F4135 (FBS)), 100 Units/ml penicillin/100 μg/ml streptomycin (=Pen/Strep from Invitrogen Cat. No. 15140)., For the assay the cells were seeded in 384 well plates, 5000 cells per well, in the same medium. The next day the test compounds were added in various concentrations ranging from 3 μM to 0.00015 μM (10 concentrations, 1:3 diluted). After 7 days the CellTiter-Glo™ assay was done according to the instructions of the manufacturer (CellTiter-Glo™ Luminescent Cell Viability Assay, from Promega). In brief: the cell-plate was equilibrated to room temperature for approximately 30 minutes and than the CellTiter-Glo™ reagent was added. The contents were carefully mixed for 15 minutes to induce cell lysis. After 45 minutes the luminescent signal was measured in Victor 2, (scanning multiwell spectrophotometer, Wallac).
Medium: Dulbecco's Modified Eagle Medium (DMEM) with Glutamax™ (Invitrogen, 31966-021), 5% Fetal Calf Serum (FCS, Sigma Cat-No. F4135 (FBS)), Pen/Strep (Invitrogen Cat. No. 15140).
Incubate 24 h at 37° C., 5% CO2
2nd Day: Induction (Substance Testing):
In general the dilution steeps are 1:3 • a) Add 8 μl of 10 mM stock solution of compound to 72 μl DMSO • b) dilute 9×1:3 (always 30 μl to 60 μl DMSO) in this DMSO dilution row (results in 10 wells with concentrations from 1000 μM to 0.06 μM) • c) dilute each concentration 1:4.8 (10 μl compound dilution to 38 μl medium) • d) dilute each concentration 1:10 (10 μl compound dilution to 90 μl medium) • e) add 10 μl of every concentration to 60 μl medium in the cell plate • resulting in final concentration of DMSO: 0.3% in every well • and resulting in final concentration of compounds from 3 μM to 0.00015 μM • Incubate 168 h (7 days) at 37° C., 5% CO2
Analysis: • Add 30 μl CellTiter-Glo™ Reagent/well, • shake 15 minutes at room temperature • incubate further 45 minutes at room temperature without shaking.
Measurement: • Victor 2 scanning multiwell spectrophotometer (Wallac), Luminescence mode • Determine IC50 with XL-fit (XLfit software (ID Business Solution Ltd., Guilford, Surrey, UK)).

SMILES | IC50
OCCn1cc(CCCCc2ccc(OCc3coc(/C=C/c4ccc(OC(F)(F)F)cc4)n3)cc2)nn1 [Example 1.6, 2-{4-[4-(4-{2-[(E)-2-(4-Trifluoromethoxy-phenyl)-vinyl]-oxazol-4-ylmethoxy}-phenyl)-butyl]-[1,2,3]triazol-1-yl}-ethanol] | 166 nM
OCCn1nncc1CCCCc1ccc(OCc2coc(/C=C/c3ccc(OC(F)(F)F)cc3)n2)cc1 [Example 1.7, 2-{5-[4-(4-{2-[(E)-2-(4-Trifluoromethoxy-phenyl)-vinyl]-oxazol-4-ylmethoxy}-phenyl)-butyl]-[1,2,3]triazol-1-yl}-ethanol] | 5 to 250 nM
N#CCn1ncc(CCCCc2ccc(OCc3coc(/C=C/c4ccc(OC(F)(F)F)cc4)n3)cc2)n1 [Example 1.14, {4-[4-(4-{2-[(E)-2-(4-Trifluoromethoxy-phenyl)-vinyl]-oxazol-4-ylmethoxy}-phenyl)-butyl]-[1,2,3]triazol-2-yl}-acetonitrile] | 250 to 1500 nM
N#CCn1nncc1CCCCc1ccc(OCc2coc(/C=C/c3ccc(OC(F)(F)F)cc3)n2)cc1 [Example 1.16, {5-[4-(4-{2-[(E)-2-(4-Trifluoromethoxy-phenyl)-vinyl]-oxazol-4-ylmethoxy}-phenyl)-butyl]-[1,2,3]triazol-1-yl}-acetonitrile] | 250 to 1500 nM
CC(C)([PH2]=O)n1cc(CCCCc2ccc(OCc3coc(/C=C/c4ccc(OC(F)(F)F)cc4)n3)cc2)nn1 [Example 1.17, 1-(Dimethyl-phosphinoylmethyl)-4-[4-(4-{2-[(E)-2-(4-trifluoromethoxy-phenyl)-vinyl]-oxazol-4-ylmethoxy}-phenyl)-butyl]-1H-[1,2,3]triazole] | 250 to 1500 nM
CC(C)([PH2]=O)n1ncc(CCCCc2ccc(OCc3coc(/C=C/c4ccc(OC(F)(F)F)cc4)n3)cc2)n1 [Example 1.18, 2-(Dimethyl-phosphinoylmethyl)-4-[4-(4-{2-[(E)-2-(4-trifluoromethoxy-phenyl)-vinyl]-oxazol-4-ylmethoxy}-phenyl)-butyl]-2H-[1,2,3]triazole] | 5 to 250 nM
FC(F)(F)Oc1ccc(/C=C/c2nc(COc3ccc(CCCCc4cnn(CCN5CCOCC5)n4)cc3)co2)cc1 [Example 1.19, 4-(2-{4-[4-(4-{2-[(E)-2-(4-Trifluoromethoxy-phenyl)-vinyl]-oxazol-4-ylmethoxy}-phenyl)-butyl]-[1,2,3]triazol-2-yl}-ethyl)-morpholine] | 5 to 250 nM
